Tests used:
[1] = DRUGMATRIX: Glutamate, Kainate radioligand binding (ligand: [3H] Kainic acid); type: cell membranes, Rattus norvegicus, Wistar, Brain, Membrane; conditions: Not Active = under 50% inhibition at 10 µM
[2] = target: T1, Muscarinic acetylcholine receptor M4 (Homo sapiens, UniProt P08173); type: cell membranes, CHO-K1, Membrane; also: in other assays of this panel Not Active means under 50% inhibition at 10 µM
T1 sequence (P08173 whole entry): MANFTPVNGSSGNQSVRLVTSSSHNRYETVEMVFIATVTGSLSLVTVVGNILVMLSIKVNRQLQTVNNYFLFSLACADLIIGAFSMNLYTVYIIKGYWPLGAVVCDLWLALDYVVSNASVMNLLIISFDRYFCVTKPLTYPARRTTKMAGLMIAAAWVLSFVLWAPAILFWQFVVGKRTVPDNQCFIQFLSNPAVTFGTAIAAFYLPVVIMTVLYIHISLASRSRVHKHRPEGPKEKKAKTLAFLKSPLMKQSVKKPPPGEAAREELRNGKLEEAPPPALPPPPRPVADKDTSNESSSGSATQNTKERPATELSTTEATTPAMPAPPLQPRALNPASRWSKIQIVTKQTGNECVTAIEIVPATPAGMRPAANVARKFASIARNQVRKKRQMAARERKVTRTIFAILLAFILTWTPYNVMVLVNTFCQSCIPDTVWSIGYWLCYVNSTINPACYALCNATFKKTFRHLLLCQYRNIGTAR

[3] = target: Kappa-type opioid receptor (Homo sapiens, UniProt P41145); test: DRUGMATRIX: Opiate kappa (OP2, KOP) radioligand binding (ligand: [3H] Diprenorphine); type: cell membranes, HEK293, Membrane; conditions: hek293; Not Active = under 50% inhibition at 10 µM
[4] = DRUGMATRIX: Phorbol Ester radioligand binding (ligand: [3H] PDBu); type: cell membranes, Mus musculus, ICR, Brain, Membrane; conditions: Not Active = under 50% inhibition at 10 µM
[5] = target: Tyrosine-protein kinase Fyn (Homo sapiens, UniProt P06241); test: biochemical; type: cell-based, Insect cells;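 also: enzymatic inhibition of Fyn kinase activity measured with Poly(Glu:Tyr) as the phosphorylation substrate; in other assays of this panel Not Active means under 50% inhibition at 10 µM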
[6] = target: Tyrosine-protein kinase Lck (Homo sapiens, UniProt P06239); test: DRUGMATRIX: Protein Tyrosine Kinase, LCK enzyme inhibition (substrate: Poly(Glu:Tyr)); type: cell-based, Insect cells; conditions: Not Active = under 50% inhibition at 10 µM
Chain of Tyrosine-protein kinase Lck (P06239 whole entry): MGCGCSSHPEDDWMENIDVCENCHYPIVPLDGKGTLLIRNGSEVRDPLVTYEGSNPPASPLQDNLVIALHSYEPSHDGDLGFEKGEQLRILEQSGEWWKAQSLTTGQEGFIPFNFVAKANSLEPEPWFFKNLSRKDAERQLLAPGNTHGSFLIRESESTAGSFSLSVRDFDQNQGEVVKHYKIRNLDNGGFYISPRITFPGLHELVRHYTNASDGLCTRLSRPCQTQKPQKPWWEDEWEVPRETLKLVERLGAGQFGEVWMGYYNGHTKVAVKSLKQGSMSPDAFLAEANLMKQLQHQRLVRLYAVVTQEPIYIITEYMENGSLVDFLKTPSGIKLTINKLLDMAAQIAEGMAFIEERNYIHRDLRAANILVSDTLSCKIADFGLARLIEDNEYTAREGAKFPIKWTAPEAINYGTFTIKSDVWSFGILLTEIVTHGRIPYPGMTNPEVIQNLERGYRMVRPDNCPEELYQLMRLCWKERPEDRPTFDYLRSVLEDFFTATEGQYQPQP

Chain of Tyrosine-protein kinase Fyn (P06241 whole entry): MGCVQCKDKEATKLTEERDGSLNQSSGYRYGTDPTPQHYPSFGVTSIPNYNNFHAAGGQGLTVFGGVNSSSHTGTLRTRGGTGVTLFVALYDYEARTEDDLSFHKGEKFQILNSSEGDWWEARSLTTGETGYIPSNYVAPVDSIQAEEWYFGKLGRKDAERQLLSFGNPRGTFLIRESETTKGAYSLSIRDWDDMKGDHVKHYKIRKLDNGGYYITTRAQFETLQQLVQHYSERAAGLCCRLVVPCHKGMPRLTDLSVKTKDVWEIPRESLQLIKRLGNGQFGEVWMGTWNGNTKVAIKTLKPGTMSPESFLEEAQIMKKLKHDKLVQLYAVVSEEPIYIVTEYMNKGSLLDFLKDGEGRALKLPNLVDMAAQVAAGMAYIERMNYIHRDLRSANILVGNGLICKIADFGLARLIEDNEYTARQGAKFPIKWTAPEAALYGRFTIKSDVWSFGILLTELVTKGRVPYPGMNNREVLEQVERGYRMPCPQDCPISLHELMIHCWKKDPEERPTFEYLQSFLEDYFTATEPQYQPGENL
Chain of Kappa-type opioid receptor (P41145 whole entry): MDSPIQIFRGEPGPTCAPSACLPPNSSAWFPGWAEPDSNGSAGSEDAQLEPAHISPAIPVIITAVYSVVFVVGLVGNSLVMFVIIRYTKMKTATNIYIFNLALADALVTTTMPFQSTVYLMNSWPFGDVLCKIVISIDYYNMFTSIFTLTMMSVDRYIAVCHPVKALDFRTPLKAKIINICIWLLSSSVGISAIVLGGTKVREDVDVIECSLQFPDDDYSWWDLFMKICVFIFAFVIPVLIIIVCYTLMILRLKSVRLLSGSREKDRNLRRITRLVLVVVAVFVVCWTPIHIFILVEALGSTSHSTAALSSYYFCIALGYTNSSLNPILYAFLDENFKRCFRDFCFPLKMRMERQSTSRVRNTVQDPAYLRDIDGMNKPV

SMILES	IC50 [1]	Ki [1]	IC50 ([2]; cho-k1)	IC50 [3]	IC50 [4]	Ki [4]	IC50 ([5]; insect cells)	IC50 ([6]; insect cells)	IC50 ([5]; read-out: IC50)	IC50 ([6]; read-out: IC50)	IC50 ([2]; read-out: IC50)	Ki ([2]; read-out: Ki)
COc1nc(C)nc(Cl)c1NC1=NCCN1 [MOXONIDINE]	Not Active	Not Active	Not Active	Not Active	Not Active	Not Active	Not Active	Not Active	–	–	–	–
N[C@@H](Cc1ccc(O)c(O)c1)C(=O)O [LEVODOPA]	Not Active	Not Active	Not Active	Not Active	Not Active	Not Active	–	–	2150 nM	3730 nM	–	–
OCCN(CCO)c1nc(N2CCCCC2)c2nc(N(CCO)CCO)nc(N3CCCCC3)c2n1 [DIPYRIDAMOLE]	Not Active	Not Active	Not Active	Not Active	Not Active	Not Active	Not Active	Not Active	–	–	–	–
Cn1ccnc1S [METHIMAZOLE]	Not Active	Not Active	Not Active	Not Active	Not Active	Not Active	Not Active	Not Active	–	–	–	–
CC(=O)[C@@]1(O)CC[C@H]2[C@@H]3C[C@H](C)C4=CC(=O)CC[C@]4(C)[C@H]3CC[C@@]21C	Not Active	Not Active	Not Active	Not Active	Not Active	Not Active	Not Active	Not Active	–	–	–	–
C=CCC1(C(C)CCC)C(=O)NC(=O)NC1=O (centres undefined) [SECOBARBITAL]	Not Active	Not Active	Not Active	Not Active	Not Active	Not Active	Not Active	Not Active	–	–	–	–
C[C@@H]1CN(c2c(F)c(N)c3c(=O)c(C(=O)O)cn(C4CC4)c3c2F)C[C@H](C)N1 [SPARFLOXACIN]	Not Active	Not Active	Not Active	Not Active	Not Active	Not Active	Not Active	Not Active	–	–	–	–
O=c1ncn2nc(Sc3ccc(F)cc3F)ccc2c1-c1c(Cl)cccc1Cl [NEFLAMAPIMOD]	Not Active	Not Active	Not Active	Not Active	Not Active	Not Active	Not Active	Not Active	–	–	–	–
Nc1c2c(nc3ccccc13)CCCC2 [TACRINE]	Not Active	Not Active	Not Active	Not Active	Not Active	Not Active	Not Active	Not Active	–	–	–	–
CO[C@H]1/C=C/O[C@@]2(C)Oc3c(C)c(O)c4c(O)c(c(/C=N/N5CCN(C)CC5)c(O)c4c3C2=O)NC(=O)/C(C)=C\C=C\[C@H](C)[C@H](O)[C@@H](C)[C@@H](O)[C@@H](C)[C@H](OC(C)=O)[C@@H]1C [RIFAMPIN]	Not Active	Not Active	Not Active	Not Active	Not Active	Not Active	Not Active	Not Active	–	–	–	–
CCCCc1oc2ccccc2c1C(=O)c1cc(I)c(OCCN(CC)CC)c(I)c1 [AMIODARONE]	–	–	–	–	–	–	–	Not Active	817 nM	–	3630 nM	506 nM
CCOC(=O)N1CCC(=C2c3ccc(Cl)cc3CCc3cccnc32)CC1 [LORATADINE]	Not Active	Not Active	Not Active	Not Active	Not Active	Not Active	Not Active	Not Active	–	–	–	–
N[C@@H](Cc1ccc(N(CCCl)CCCl)cc1)C(=O)O	Not Active	Not Active	Not Active	–	Not Active	Not Active	Not Active	Not Active	–	–	–	–
Cc1noc(NS(=O)(=O)c2ccc(N)cc2)c1C [SULFISOXAZOLE]	Not Active	Not Active	Not Active	Not Active	Not Active	Not Active	Not Active	Not Active	–	–	–	–
N[C@@H](Cc1cc(I)c(Oc2ccc(O)c(I)c2)c(I)c1)C(=O)O [LIOTHYRONINE]	–	–	Not Active	Not Active	–	–	Not Active	Not Active	–	–	–	–
c1ccc([C@H]2CN3CCSC3=N2)cc1 [LEVAMISOLE]	Not Active	Not Active	Not Active	Not Active	Not Active	Not Active	Not Active	Not Active	–	–	–	–

Source: ChEMBL document CHEMBL1909046, “DrugMatrix in vitro pharmacology data”
